From ChEMBL document CHEMBL4304777 (Eur J Med Chem, 2019)

Tests used:
[1] = target: RAC-alpha serine/threonine-protein kinase (Homo sapiens, UniProt P31749); test: Inhibition of Akt1 (unknown origin) expressed in Escherichia coli using peptide as substrate incubated for 1 hr by HTRF assay
OVCAR-8 = test: Cytotoxicity against human OVCAR8 cells assessed as reduction in cell viability incubated for 72 hrs by SRB assay; format: functional, cell-based; conditions: OVCAR-8, 72 h
HCT-116 [2] = test: Cytotoxicity against human HCT116 cells assessed as reduction in cell viability incubated for 72 hrs by SRB assay; format: functional, cell-based; conditions: HCT-116, 72 h
MM1.S [3] = test: Antiproliferative activity against human MM1S cells assessed as reduction in cell viability; format: functional, cell-based
RPMI-8226 = test: Antiproliferative activity against human RPMI8226 cells assessed as reduction in cell viability; format: functional, cell-based
[4] = Antiproliferative activity against human CEM/C1 cells assessed as reduction in cell viability; format: functional, cell-based
MOLT-4 = test: Antiproliferative activity against human MOLT4 cells assessed as reduction in cell viability; format: functional, cell-based
MV4-11 = test: Antiproliferative activity against human MV4-11 cells assessed as reduction in cell viability; format: functional, cell-based
U-937 = test: Antiproliferative activity against human U937 cells assessed as reduction in cell viability; format: functional, cell-based
CCRF-CEM = test: Antiproliferative activity against human CCRF-CEM cells assessed as reduction in cell viability; format: functional, cell-based
[5] = Antiproliferative activity against human Mino cells assessed as reduction in cell viability; format: functional, cell-based
K562 = test: Antiproliferative activity against human K562 cells assessed as reduction in cell viability; format: functional, cell-based
HCT-116 [6] = test: Induction of apoptosis in human HCT116 cells assessed as apoptotic cells at 0.4 uM incubated for 72 hrs by annexin V - FITC and propidium iodide staining based flow cytometry (reference value: 6.99 %); format: functional
HCT-116 [7] = test: Induction of apoptosis in human HCT116 cells assessed as apoptotic cells at 2 uM incubated for 72 hrs by annexin V - FITC and propidium iodide staining based flow cytometry (reference value: 6.99 %); format: functional
HCT-116 [8] = test: Induction of apoptosis in human HCT116 cells assessed as apoptotic cells at 10 uM incubated for 72 hrs by annexin V - FITC and propidium iodide staining based flow cytometry (reference value: 6.99 %); format: functional
[9] = Tmax in Sprague-Dawley rat at 10 mg/kg, po measured up 48 hrs by LC-MS/MS analysis; format: ADME, organism-based; conditions: in vivo
[10] = Half life in Sprague-Dawley rat at 10 mg/kg, po measured up 48 hrs by LC-MS/MS analysis; format: ADME, organism-based; conditions: in vivo
[11] = Cmax in Sprague-Dawley rat at 10 mg/kg, po measured up 48 hrs by LC-MS/MS analysis; format: ADME, organism-based; parameters: dose 10 mg/kg, route oral; conditions: in vivo
[12] = AUC (0 to t) in Sprague-Dawley rat at 10 mg/kg, po measured up 48 hrs by LC-MS/MS analysis; format: ADME, organism-based; conditions: in vivo
[13] = AUC (0 to infinity) in Sprague-Dawley rat at 10 mg/kg, po measured up 48 hrs by LC-MS/MS analysis; format: ADME, organism-based; parameters: dose 10 mg/kg, time infinity, route oral; conditions: in vivo
[14] = Oral bioavailability in Sprague-Dawley rat at 10 mg/kg, measured up 48 hrs by LC-MS/MS analysis; format: ADME, organism-based; conditions: in vivo
[15] = Tmax in Sprague-Dawley rat at 2 mg/kg, iv measured up 48 hrs by LC-MS/MS analysis; format: ADME, organism-based; conditions: in vivo
[16] = Half life in Sprague-Dawley rat at 2 mg/kg, iv measured up 48 hrs by LC-MS/MS analysis; format: ADME, organism-based; conditions: in vivo
[17] = Cmax in Sprague-Dawley rat at 2 mg/kg, iv measured up 48 hrs by LC-MS/MS analysis; format: ADME, organism-based; parameters: dose 2 mg/kg, route intravenous; conditions: in vivo
[18] = AUC (0 to t) in Sprague-Dawley rat at 2 mg/kg, iv measured up 48 hrs by LC-MS/MS analysis; format: ADME, organism-based; conditions: in vivo
[19] = AUC (0 to infinity) in Sprague-Dawley rat at 2 mg/kg, iv measured up 48 hrs by LC-MS/MS analysis; format: ADME, organism-based; parameters: dose 2 mg/kg, time infinity, route intravenous; conditions: in vivo
hERG (KCNH2) = hERG (KCNH2) (Homo sapiens, UniProt Q12809); test: Inhibition of human ERG expressed in HEK293 cells at 3 uM at - 40 mV holding potential by whole cell patch clamp assay relative to control; format: cell-based; conditions: HEK293 cells expressing human ERG
[20] = Stability in mouse liver microsomes assessed as remaining compound at 100 ug/ml incubated for 1.5 hrs by LC-MS analysis; format: ADME, Microsome; conditions: read-out: Stability
[21] = Stability in rat liver microsomes assessed as remaining compound at 100 ug/ml incubated for 1.5 hrs by LC-MS analysis; format: ADME, Microsome; conditions: read-out: Stability
[22] = Stability in dog liver microsomes assessed as remaining compound at 100 ug/ml incubated for 1.5 hrs by LC-MS analysis; format: ADME, Canis lupus familiaris, Microsome; conditions: read-out: Stability
[23] = Stability in human liver microsomes assessed as remaining compound at 100 ug/ml incubated for 1.5 hrs by LC-MS analysis; format: ADME, Microsome; conditions: read-out: Stability
[24] = Stability in rat plasma assessed as remaining compound at 100 ug/ml incubated for 1.5 hrs by LC-MS analysis; format: ADME, cell-free; conditions: read-out: Stability
[25] = Stability in human plasma assessed as remaining compound at 100 ug/ml incubated for 1.5 hrs by LC-MS analysis; format: ADME, cell-free; conditions: read-out: Stability
[26] = Toxicity in BALB/c mouse xenografted with human MM1S cells assessed as body weight loss at 15 to 30 mg/kg, po administered once daily for 14 days; format: organism-based; conditions: in vivo, 336 h
MM1.S [27] = test: Antitumor activity against human MM1S cells xenografted in BALB/c mouse assessed as tumor growth inhibition at 15 mg/kg, po administered for 14 days; format: functional; conditions: 336 h, read-out: TGI
MM1.S [28] = test: Antitumor activity against human MM1S cells xenografted in BALB/c mouse assessed as tumor growth inhibition at 30 mg/kg, po administered for 14 days; format: functional; conditions: 336 h, read-out: TGI
HuT78 = test: Antiproliferative activity against human HUT78 cells assessed as reduction in cell viability; format: functional, cell-based
JVM-2 = test: Antiproliferative activity against human JVM2 cells assessed as reduction in cell viability; format: functional, cell-based

Sequence of RAC-alpha serine/threonine-protein kinase (P31749 whole entry): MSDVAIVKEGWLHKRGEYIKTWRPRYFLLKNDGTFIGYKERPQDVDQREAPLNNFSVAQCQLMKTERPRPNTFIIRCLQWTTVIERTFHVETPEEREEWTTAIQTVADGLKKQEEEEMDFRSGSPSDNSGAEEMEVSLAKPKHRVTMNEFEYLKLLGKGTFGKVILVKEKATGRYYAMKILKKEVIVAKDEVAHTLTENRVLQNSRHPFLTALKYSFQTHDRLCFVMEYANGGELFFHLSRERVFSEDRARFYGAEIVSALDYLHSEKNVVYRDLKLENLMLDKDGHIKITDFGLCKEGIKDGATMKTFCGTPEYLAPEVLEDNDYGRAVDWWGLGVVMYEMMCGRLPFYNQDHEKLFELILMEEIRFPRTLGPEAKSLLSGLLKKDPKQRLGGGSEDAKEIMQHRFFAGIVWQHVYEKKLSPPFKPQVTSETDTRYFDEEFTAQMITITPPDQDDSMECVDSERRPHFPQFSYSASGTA
Sequence of hERG (KCNH2) (Q12809 whole entry): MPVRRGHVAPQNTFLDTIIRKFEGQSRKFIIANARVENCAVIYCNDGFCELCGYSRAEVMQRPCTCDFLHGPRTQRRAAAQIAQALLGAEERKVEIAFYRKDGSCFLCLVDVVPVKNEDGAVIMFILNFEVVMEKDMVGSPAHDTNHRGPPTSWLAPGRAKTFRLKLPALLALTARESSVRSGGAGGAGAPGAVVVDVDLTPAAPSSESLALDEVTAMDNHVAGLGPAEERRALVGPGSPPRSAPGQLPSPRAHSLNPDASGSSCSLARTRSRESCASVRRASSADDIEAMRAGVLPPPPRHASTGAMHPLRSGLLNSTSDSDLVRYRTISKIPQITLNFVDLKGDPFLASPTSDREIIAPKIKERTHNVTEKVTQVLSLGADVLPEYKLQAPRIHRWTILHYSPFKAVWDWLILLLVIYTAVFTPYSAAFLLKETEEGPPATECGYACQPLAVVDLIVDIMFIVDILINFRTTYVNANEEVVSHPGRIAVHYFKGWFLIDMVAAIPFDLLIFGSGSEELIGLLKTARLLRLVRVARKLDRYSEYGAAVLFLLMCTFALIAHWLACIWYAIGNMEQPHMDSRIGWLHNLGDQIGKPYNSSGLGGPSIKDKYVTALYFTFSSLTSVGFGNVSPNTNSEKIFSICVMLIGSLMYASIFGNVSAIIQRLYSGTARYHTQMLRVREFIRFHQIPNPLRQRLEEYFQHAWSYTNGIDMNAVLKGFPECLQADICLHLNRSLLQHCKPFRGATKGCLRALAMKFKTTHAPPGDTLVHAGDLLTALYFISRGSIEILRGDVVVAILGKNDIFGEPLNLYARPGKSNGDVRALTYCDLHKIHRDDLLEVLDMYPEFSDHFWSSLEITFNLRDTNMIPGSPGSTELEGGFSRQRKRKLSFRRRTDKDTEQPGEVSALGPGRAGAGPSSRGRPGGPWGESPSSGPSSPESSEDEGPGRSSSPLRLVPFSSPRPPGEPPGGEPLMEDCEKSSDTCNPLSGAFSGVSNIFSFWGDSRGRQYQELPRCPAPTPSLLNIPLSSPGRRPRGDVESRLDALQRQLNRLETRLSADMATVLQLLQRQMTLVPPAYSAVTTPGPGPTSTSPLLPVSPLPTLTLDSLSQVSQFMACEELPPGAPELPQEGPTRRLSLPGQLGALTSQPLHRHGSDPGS

Structure (SMILES): Cn1nccc1-c1ccc(C(=O)N[C@@H]2CNCC[C@H]2c2ccc(Cl)cc2)s1
- IC50 [1]: 10.2 nM
- IC50 (OVCAR-8): 1390 nM
- IC50 (HCT-116 [2]): 8870 nM

Structure (SMILES): Cn1ncc(-c2ccccc2)c1-c1ccc(C(=O)N[C@@H]2CNCC[C@H]2c2cccc(F)c2)s1
- IC50 [1]: 70.4 nM
- IC50 (OVCAR-8): 2510 nM
- IC50 (HCT-116 [2]): 4420 nM

Structure (SMILES): Cl.Cn1ncc(Cl)c1-c1csc(C(=O)N[C@@H]2CNCC[C@H]2c2cccc(F)c2)c1
- IC50 [1]: 1.26 nM
- IC50 (HCT-116 [2]): 950 nM
- IC50 (MM1.S [3]): 2 nM
- IC50 (RPMI-8226): 49 nM
- IC50 [4]: 7 nM
- IC50 (MOLT-4): 14 nM
- IC50 (MV4-11): 441 nM
- IC50 (U-937): 188 nM
- IC50 (CCRF-CEM): 8 nM
- IC50 [5]: 531 nM
- IC50 (K562): > 3000 nM
- Activity (HCT-116 [6]): 7.73%
- Activity (HCT-116 [7]): 8.69%
- Activity (HCT-116 [8]): 24.58%
- Tmax [9]: 2.75 h
- half-life [10]: 4.74 h
- Cmax [11]: 423 ng/mL
- AUC(0-t) at 48 h [12]: 3890 ng·h/mL
- AUC(0-inf) [13]: 3940 ng·h/mL
- bioavailability [14]: 52%
- Tmax [15]: 4.98 min
- half-life [16]: 3.52 h
- Cmax [17]: 1440 ng/mL
- AUC(0-t) at 48 h [18]: 1480 ng·h/mL
- AUC(0-inf) [19]: 1510 ng·h/mL
- inhibition at 3 µM (hERG (KCNH2)): 40%
- remaining at 1.5 h, 100 ug/ml [20]: 82.7%
- remaining at 1.5 h, 100 ug/ml [21]: 63.7%
- remaining at 1.5 h, 100 ug/ml [22]: 81.3%
- remaining at 1.5 h, 100 ug/ml [23]: 88.3%
- remaining at 1.5 h, 100 ug/ml [24]: > 99%
- remaining at 1.5 h, 100 ug/ml [25]: > 99%
- Activity [26]: Toxic
- inhibition in vivo at 15 mg/kg (MM1.S [27]): 40.7%
- inhibition in vivo at 30 mg/kg (MM1.S [28]): 42.1%

Structure (SMILES): Cn1ncc(Cl)c1-c1csc(C(=O)N[C@@H]2CNCC[C@H]2c2ccc(Cl)c(C(F)(F)F)c2)c1
- IC50 [1]: 35.3 nM
- IC50 (OVCAR-8): 580 nM
- IC50 (HCT-116 [2]): 1850 nM

Structure (SMILES): Cc1cnn(C)c1-c1ccc(C(=O)N[C@@H]2CNCC[C@H]2c2cccc(F)c2)s1
- IC50 [1]: 9 nM
- IC50 (OVCAR-8): 1740 nM
- IC50 (HCT-116 [2]): 1780 nM

Structure (SMILES): Cn1ncc(-c2ccncc2)c1-c1ccc(C(=O)N[C@@H]2CNCC[C@H]2c2cccc(F)c2)s1
- IC50 [1]: 99.9 nM
- IC50 (OVCAR-8): 28000 nM
- IC50 (HCT-116 [2]): 24000 nM

Structure (SMILES): Cn1ncc(Cl)c1-c1ccc(C(=O)N[C@@H]2CNCC[C@H]2c2ccc(Cl)c(C(F)(F)F)c2)s1
- IC50 [1]: 65.2 nM
- IC50 (OVCAR-8): 640 nM
- IC50 (HCT-116 [2]): 1410 nM

Structure (SMILES): Cn1ncc(Cl)c1-c1ccc(C(=O)N[C@@H]2CNCC[C@H]2c2ccc(Cl)cc2)s1
- IC50 [1]: 1.8 nM
- IC50 (OVCAR-8): 1470 nM
- IC50 (HCT-116 [2]): 3020 nM

Structure (SMILES): Cn1nccc1-c1ccc(C(=O)N[C@@H]2CNCC[C@H]2c2cccc(F)c2)s1
- IC50 [1]: 10.6 nM
- IC50 (OVCAR-8): 1590 nM
- IC50 (HCT-116 [2]): 1370 nM

Structure (SMILES): Cn1ncc(CO)c1-c1ccc(C(=O)N[C@@H]2CNCC[C@H]2c2cccc(F)c2)s1
- IC50 [1]: 62.2 nM
- IC50 (OVCAR-8): 7170 nM
- IC50 (HCT-116 [2]): 7420 nM

Structure (SMILES): Cn1ncc(C(=O)O)c1-c1ccc(C(=O)N[C@@H]2CNCC[C@H]2c2cccc(F)c2)s1
- IC50 [1]: 101 nM
- IC50 (OVCAR-8): > 50000 nM
- IC50 (HCT-116 [2]): > 50000 nM

Structure (SMILES): C=Cc1cnn(C)c1-c1ccc(C(=O)N[C@@H]2CNCC[C@H]2c2cccc(F)c2)s1
- IC50 [1]: 46.9 nM
- IC50 (OVCAR-8): 3190 nM
- IC50 (HCT-116 [2]): 6850 nM

Structure (SMILES): Cn1ncc(Cl)c1-c1cc(C(=O)N[C@H](CN)Cc2ccc(F)c(F)c2)oc1Cl [UPROSERTIB]
- IC50 (OVCAR-8): 540 nM
- IC50 (HCT-116 [2]): 1750 nM
- IC50 (MM1.S [3]): 32 nM
- IC50 (RPMI-8226): 538 nM
- IC50 [4]: 30 nM
- IC50 (MOLT-4): 66 nM
- IC50 (MV4-11): 635 nM
- IC50 (HuT78): 378 nM
- IC50 (JVM-2): 293 nM
- IC50 (U-937): 101 nM
- IC50 (K562): > 3000 nM
- inhibition in vivo at 30 mg/kg (MM1.S [28]): 36.8%

Structure (SMILES): Cl.Cn1ncc(Cl)c1-c1ccc(C(=O)N[C@@H]2CNCC[C@H]2c2cccc(F)c2)s1
- IC50 (OVCAR-8): 230 nM
- IC50 (HCT-116 [2]): 440 nM
- IC50 (MM1.S [3]): 21 nM
- IC50 (RPMI-8226): 263 nM
- IC50 [4]: 28 nM
- IC50 (MOLT-4): 50 nM
- IC50 (MV4-11): 135 nM
- IC50 (HuT78): 298 nM
- IC50 (JVM-2): 208 nM
- IC50 (U-937): 78 nM
- IC50 (K562): > 3000 nM
- Activity (HCT-116 [6]): 11.66%
- Activity (HCT-116 [7]): 22.68%
- Activity (HCT-116 [8]): 89.62%

Structure (SMILES): Cn1ncc(Br)c1-c1ccc(C(=O)N[C@@H]2CNCC[C@H]2c2cccc(F)c2)s1
- IC50 [1]: 5.46 nM
- IC50 (HCT-116 [2]): 890 nM

Structure (SMILES): CCc1cnn(C)c1-c1ccc(C(=O)N[C@@H]2CNCC[C@H]2c2cccc(F)c2)s1
- IC50 [1]: 48.9 nM
- IC50 (OVCAR-8): 2700 nM
- IC50 (HCT-116 [2]): 2830 nM

Structure (SMILES): Cn1ncc(Cl)c1-c1csc(C(=O)N[C@@H]2CNCC[C@H]2c2ccc(Cl)cc2)c1
- IC50 [1]: 13.7 nM
- IC50 (OVCAR-8): 5690 nM
- IC50 (HCT-116 [2]): 1210 nM
